Data published in the supplement of paper PMC10307832.

Columns and labels:
Test in all cases: relative viability (nuclei count vs DMSO), 5 days (fraction); higher = more cells survive
201T = system: 201T
Method in brief: (§1)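 A single step with final 0.05% Triton X-100, 1% formaldehyde and 1 ug/ml Hoechst fixed the cells and stained nuclei 5 days after treatment. Lung cancer cell lines in 1536-well plates had been treated by pin tool the day after seeding with one drug alone or a fixed anchor-drug dose plus five library-drug doses (not always all listed) in √10 steps, and nuclei were counted on 4× images. Relative viability is the ratio of nuclei in treated wells to nuclei in vehicle wells, taken as the median of duplicate plates.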

A-427 = system: A-427
Method in brief: as §1

COR-L23 = system: COR-L23
Method in brief: as §1

H3255 = system: H3255
Method in brief: as §1

LCLC-103H = system: LCLC-103H
Method in brief: as §1

LCLC-97TM1 = system: LCLC-97TM1
Method in brief: as §1

LK-2 = system: LK-2
Method in brief: as §1

LU99A = system: LU99A
Method in brief: as §1

NCI-H1563 = system: NCI-H1563
Method in brief: as §1

NCI-H1650 = system: NCI-H1650
Method in brief: as §1

NCI-H1651 = system: NCI-H1651
Method in brief: as §1

NCI-H1793 = system: NCI-H1793
Method in brief: as §1

NCI-H1944 = system: NCI-H1944
Method in brief: as §1

NCI-H2347 = system: NCI-H2347
Method in brief: as §1

NCI-H23 = system: NCI-H23
Method in brief: as §1

NCI-H460 = system: NCI-H460
Method in brief: as §1

NCI-H650 = system: NCI-H650
Method in brief: as §1

NCI-H838 = system: NCI-H838
Method in brief: as §1

PC-14 = system: PC-14
Method in brief: as §1

PC-3 [JPC-3] = system: PC-3 [JPC-3]
Method in brief: as §1

RERF-LC-KJ = system: RERF-LC-KJ
Method in brief: as §1

SW 1573 = system: SW 1573
Method in brief: as §1

SW 900 = system: SW 900
Method in brief: as §1

C[C@@H]1CN(CC(=O)Nc2ccc3c(c2)Cc2cccc(-c4cc(=O)cc(N5CCOCC5)o4)c2S3)C[C@H](C)O1 + Nc1nc2[nH]cc(CCc3ccc(C(=O)N[C@@H](CCC(=O)O)C(=O)O)cc3)c2c(=O)[nH]1 [Pemetrexed] (partner 0.2 µM)
relative viability (201T; first compound 0.04 µM): 0.329 | relative viability (201T; first compound 0.1265 µM): 0.319 | relative viability (201T; first compound 0.4 µM): 0.295 | relative viability (201T; first compound 4 µM): 0.314 | relative viability (A-427; first compound 0.04 µM): 1.05 | relative viability (A-427; first compound 0.1265 µM): 1.04 | relative viability (A-427; first compound 0.4 µM): 1.02 | relative viability (A-427; first compound 4 µM): 0.921 | relative viability (COR-L23; first compound 0.04 µM): 0.189 | relative viability (COR-L23; first compound 0.1265 µM): 0.204 | relative viability (COR-L23; first compound 0.4 µM): 0.203 | relative viability (COR-L23; first compound 4 µM): 0.206 | relative viability (H3255; first compound 0.04 µM): 0.539 | relative viability (H3255; first compound 0.1265 µM): 0.522 | relative viability (H3255; first compound 0.4 µM): 0.482 | relative viability (H3255; first compound 4 µM): 0.489 | relative viability (LCLC-103H; first compound 0.04 µM): 0.495 | relative viability (LCLC-103H; first compound 0.1265 µM): 0.464 | relative viability (LCLC-103H; first compound 0.4 µM): 0.458 | relative viability (LCLC-103H; first compound 4 µM): 0.507 | relative viability (LCLC-97TM1; first compound 0.1265 µM): 0.192 | relative viability (LCLC-97TM1; first compound 0.4 µM): 0.183 | relative viability (LCLC-97TM1; first compound 4 µM): 0.17 | relative viability (LK-2; first compound 0.04 µM): 0.218 | relative viability (LK-2; first compound 0.1265 µM): 0.288 | relative viability (LK-2; first compound 0.4 µM): 0.237 | relative viability (LK-2; first compound 4 µM): 0.217 | relative viability (LU99A; first compound 0.04 µM): 0.184 | relative viability (LU99A; first compound 0.1265 µM): 0.15 | relative viability (LU99A; first compound 0.4 µM): 0.21 | relative viability (LU99A; first compound 4 µM): 0.222 | relative viability (NCI-H1563; first compound 0.04 µM): 0.661 | relative viability (NCI-H1563; first compound 0.1265 µM): 0.774 | relative viability (NCI-H1563; first compound 0.4 µM): 0.715 | relative viability (NCI-H1563; first compound 4 µM): 0.712 | relative viability (NCI-H1650; first compound 0.04 µM): 0.367 | relative viability (NCI-H1650; first compound 0.1265 µM): 0.353 | relative viability (NCI-H1650; first compound 0.4 µM): 0.408 | relative viability (NCI-H1650; first compound 4 µM): 0.329 | relative viability (NCI-H1651; first compound 0.04 µM): 0.549 | relative viability (NCI-H1651; first compound 0.1265 µM): 0.565 | relative viability (NCI-H1651; first compound 0.4 µM): 0.569 | relative viability (NCI-H1651; first compound 4 µM): 0.52 | relative viability (NCI-H1793; first compound 0.04 µM): 0.98 | relative viability (NCI-H1793; first compound 0.1265 µM): 0.752 | relative viability (NCI-H1793; first compound 0.4 µM): 0.855 | relative viability (NCI-H1793; first compound 4 µM): 0.485 | relative viability (NCI-H1944; first compound 0.1265 µM): 0.819 | relative viability (NCI-H1944; first compound 0.4 µM): 0.642 | relative viability (NCI-H1944; first compound 4 µM): 0.616 | relative viability (NCI-H2347; first compound 0.04 µM): 0.413 | relative viability (NCI-H2347; first compound 0.1265 µM): 0.408 | relative viability (NCI-H2347; first compound 0.4 µM): 0.413 | relative viability (NCI-H2347; first compound 4 µM): 0.381 | relative viability (NCI-H23; first compound 0.04 µM): 0.685 | relative viability (NCI-H23; first compound 0.1265 µM): 0.696 | relative viability (NCI-H23; first compound 0.4 µM): 0.617 | relative viability (NCI-H23; first compound 4 µM): 0.521 | relative viability (NCI-H460; first compound 0.04 µM): 0.0638 | relative viability (NCI-H460; first compound 0.1265 µM): 0.0634 | relative viability (NCI-H460; first compound 0.4 µM): 0.0696 | relative viability (NCI-H460; first compound 4 µM): 0.0616 | relative viability (NCI-H650; first compound 0.04 µM): 0.925 | relative viability (NCI-H650; first compound 0.1265 µM): 0.866 | relative viability (NCI-H650; first compound 0.4 µM): 0.943 | relative viability (NCI-H650; first compound 4 µM): 0.812 | relative viability (NCI-H838; first compound 0.04 µM): 0.262 | relative viability (NCI-H838; first compound 0.1265 µM): 0.244 | relative viability (NCI-H838; first compound 0.4 µM): 0.243 | relative viability (NCI-H838; first compound 4 µM): 0.236 | relative viability (PC-14; first compound 0.04 µM): 0.119 | relative viability (PC-14; first compound 0.1265 µM): 0.141 | relative viability (PC-14; first compound 0.4 µM): 0.127 | relative viability (PC-14; first compound 4 µM): 0.116 | relative viability (PC-3 [JPC-3]; first compound 0.04 µM): 1.04 | relative viability (PC-3 [JPC-3]; first compound 0.1265 µM): 1.09 | relative viability (PC-3 [JPC-3]; first compound 0.4 µM): 1.21 | relative viability (PC-3 [JPC-3]; first compound 4 µM): 0.943 | relative viability (RERF-LC-KJ; first compound 0.04 µM): 0.521 | relative viability (RERF-LC-KJ; first compound 0.1265 µM): 0.465 | relative viability (RERF-LC-KJ; first compound 0.4 µM): 0.461 | relative viability (RERF-LC-KJ; first compound 4 µM): 0.443 | relative viability (SW 1573; first compound 0.04 µM): 0.935 | relative viability (SW 1573; first compound 0.1265 µM): 0.855 | relative viability (SW 1573; first compound 0.4 µM): 0.903 | relative viability (SW 1573; first compound 4 µM): 0.822 | relative viability (SW 900; first compound 0.04 µM): 0.469 | relative viability (SW 900; first compound 0.1265 µM): 0.471 | relative viability (SW 900; first compound 0.4 µM): 0.44 | relative viability (SW 900; first compound 4 µM): 0.453

CC(C)Oc1cc(Nc2nc(N[C@@H](C)c3ccc(F)cn3)ncc2Cl)n[nH]1 [AZ23] + Nc1nc2[nH]cc(CCc3ccc(C(=O)N[C@@H](CCC(=O)O)C(=O)O)cc3)c2c(=O)[nH]1 [Pemetrexed] (partner 0.2 µM)
relative viability (201T; first compound 0.01 µM): 0.251 | relative viability (201T; first compound 0.03162 µM): 0.348 | relative viability (201T; first compound 0.3162 µM): 0.336 | relative viability (A-427; first compound 0.01 µM): 0.797 | relative viability (A-427; first compound 0.03162 µM): 1.01 | relative viability (A-427; first compound 0.3162 µM): 1.15 | relative viability (COR-L23; first compound 0.01 µM): 0.172 | relative viability (COR-L23; first compound 0.03162 µM): 0.193 | relative viability (COR-L23; first compound 0.3162 µM): 0.189 | relative viability (H3255; first compound 0.01 µM): 0.536 | relative viability (H3255; first compound 0.03162 µM): 0.603 | relative viability (H3255; first compound 0.3162 µM): 0.577 | relative viability (LCLC-103H; first compound 0.01 µM): 0.448 | relative viability (LCLC-103H; first compound 0.03162 µM): 0.433 | relative viability (LCLC-103H; first compound 0.3162 µM): 0.466 | relative viability (LCLC-97TM1; first compound 0.01 µM): 0.138 | relative viability (LCLC-97TM1; first compound 0.03162 µM): 0.193 | relative viability (LCLC-97TM1; first compound 0.3162 µM): 0.166 | relative viability (LK-2; first compound 0.03162 µM): 0.36 | relative viability (LK-2; first compound 0.3162 µM): 0.263 | relative viability (LU99A; first compound 0.01 µM): 0.146 | relative viability (LU99A; first compound 0.03162 µM): 0.199 | relative viability (LU99A; first compound 0.3162 µM): 0.209 | relative viability (NCI-H1563; first compound 0.01 µM): 0.69 | relative viability (NCI-H1563; first compound 0.03162 µM): 0.934 | relative viability (NCI-H1563; first compound 0.3162 µM): 0.885 | relative viability (NCI-H1650; first compound 0.01 µM): 0.295 | relative viability (NCI-H1650; first compound 0.03162 µM): 0.406 | relative viability (NCI-H1650; first compound 0.3162 µM): 0.359 | relative viability (NCI-H1651; first compound 0.01 µM): 0.349 | relative viability (NCI-H1651; first compound 0.03162 µM): 0.597 | relative viability (NCI-H1651; first compound 0.3162 µM): 0.615 | relative viability (NCI-H1793; first compound 0.01 µM): 0.986 | relative viability (NCI-H1793; first compound 0.03162 µM): 0.92 | relative viability (NCI-H1793; first compound 0.3162 µM): 0.979 | relative viability (NCI-H1944; first compound 0.01 µM): 0.314 | relative viability (NCI-H1944; first compound 0.03162 µM): 0.824 | relative viability (NCI-H1944; first compound 0.3162 µM): 0.665 | relative viability (NCI-H2347; first compound 0.01 µM): 0.379 | relative viability (NCI-H2347; first compound 0.03162 µM): 0.412 | relative viability (NCI-H2347; first compound 0.3162 µM): 0.459 | relative viability (NCI-H23; first compound 0.03162 µM): 0.77 | relative viability (NCI-H23; first compound 0.3162 µM): 0.992 | relative viability (NCI-H460; first compound 0.01 µM): 0.0522 | relative viability (NCI-H460; first compound 0.03162 µM): 0.0661 | relative viability (NCI-H460; first compound 0.3162 µM): 0.0611 | relative viability (NCI-H650; first compound 0.01 µM): 0.936 | relative viability (NCI-H650; first compound 0.03162 µM): 0.969 | relative viability (NCI-H650; first compound 0.3162 µM): 0.888 | relative viability (NCI-H838; first compound 0.01 µM): 0.207 | relative viability (NCI-H838; first compound 0.03162 µM): 0.27 | relative viability (NCI-H838; first compound 0.3162 µM): 0.243 | relative viability (PC-14; first compound 0.01 µM): 0.127 | relative viability (PC-14; first compound 0.03162 µM): 0.136 | relative viability (PC-14; first compound 0.3162 µM): 0.147 | relative viability (PC-3 [JPC-3]; first compound 0.01 µM): 0.955 | relative viability (PC-3 [JPC-3]; first compound 0.03162 µM): 1.25 | relative viability (PC-3 [JPC-3]; first compound 0.3162 µM): 1.22 | relative viability (RERF-LC-KJ; first compound 0.01 µM): 0.493 | relative viability (RERF-LC-KJ; first compound 0.03162 µM): 0.463 | relative viability (RERF-LC-KJ; first compound 0.3162 µM): 0.495 | relative viability (SW 1573; first compound 0.01 µM): 0.958 | relative viability (SW 1573; first compound 0.03162 µM): 0.792 | relative viability (SW 1573; first compound 0.3162 µM): 0.849 | relative viability (SW 900; first compound 0.01 µM): 0.491 | relative viability (SW 900; first compound 0.3162 µM): 0.514
